Activity calls are given as the source filed them. No rule for the calls is given here.
System: CCRIS mutagenicity, Ames/micronucleus/aberration tests
Experiment: CCRIS mutagenicity studies

Structure (SMILES): C=C(CN(C)C)C(=O)c1ccccc1
- mutagenic call (Test System: AMES SALMONELLA TYPHIMURIUM, Strain/Indicator: TA97A, Metabolic Activation: NONE, Method: SPOT TEST): inactive; negative
- mutagenic call (Test System: AMES SALMONELLA TYPHIMURIUM, Strain/Indicator: TA97A, Metabolic Activation: RAT LIVER S-9, Method: SPOT TEST): inactive; negative
- mutagenic call (Test System: AMES SALMONELLA TYPHIMURIUM, Strain/Indicator: TA98, Metabolic Activation: NONE, Method: SPOT TEST): inactive; negative
- mutagenic call (Test System: AMES SALMONELLA TYPHIMURIUM, Strain/Indicator: TA98, Metabolic Activation: RAT LIVER S-9, Method: SPOT TEST): inactive; negative
- mutagenic call (Test System: AMES SALMONELLA TYPHIMURIUM, Strain/Indicator: TA100, Metabolic Activation: NONE, Method: SPOT TEST): inactive; negative
- mutagenic call (Test System: AMES SALMONELLA TYPHIMURIUM, Strain/Indicator: TA100, Metabolic Activation: RAT LIVER S-9, Method: SPOT TEST): active; positive
- mutagenic call (Test System: AMES SALMONELLA TYPHIMURIUM, Strain/Indicator: TA102, Metabolic Activation: NONE, Method: SPOT TEST): inactive; negative
- mutagenic call (Test System: AMES SALMONELLA TYPHIMURIUM, Strain/Indicator: TA102, Metabolic Activation: RAT LIVER S-9, Method: SPOT TEST): inactive; negative
- mutagenic call (Test System: AMES SALMONELLA TYPHIMURIUM, Strain/Indicator: TA104, Metabolic Activation: NONE, Method: SPOT TEST): inactive; negative
- mutagenic call (Test System: AMES SALMONELLA TYPHIMURIUM, Strain/Indicator: TA104, Metabolic Activation: RAT LIVER S-9, Method: SPOT TEST): inactive; negative
- mutagenic call (Test System: AMES SALMONELLA TYPHIMURIUM, Strain/Indicator: TA1535, Metabolic Activation: NONE, Method: SPOT TEST): inactive; negative
- mutagenic call (Test System: AMES SALMONELLA TYPHIMURIUM, Strain/Indicator: TA1538, Metabolic Activation: NONE, Method: SPOT TEST): inactive; negative

Structure (SMILES): CCCCC(CC)COP(OCC(CC)CCCC)OCC(CC)CCCC (stereo unspecified)
- mutagenic call (Test System: AMES SALMONELLA TYPHIMURIUM, Strain/Indicator: TA98, Metabolic Activation: HAMSTER, LIVER, S-9, AROCLOR 1254 (10%), Method: PREINCUBATION): inactive; negative
- mutagenic call (Test System: AMES SALMONELLA TYPHIMURIUM, Strain/Indicator: TA98, Metabolic Activation: NONE, Method: PREINCUBATION): inactive; negative
- mutagenic call (Test System: AMES SALMONELLA TYPHIMURIUM, Strain/Indicator: TA98, Metabolic Activation: RAT, LIVER, S-9, AROCLOR 1254 (10%), Method: PREINCUBATION): inactive; negative
- mutagenic call (Test System: AMES SALMONELLA TYPHIMURIUM, Strain/Indicator: TA100, Metabolic Activation: HAMSTER, LIVER, S-9, AROCLOR 1254 (10%), Method: PREINCUBATION): inactive; negative
- mutagenic call (Test System: AMES SALMONELLA TYPHIMURIUM, Strain/Indicator: TA100, Metabolic Activation: NONE, Method: PREINCUBATION): inactive; negative
- mutagenic call (Test System: AMES SALMONELLA TYPHIMURIUM, Strain/Indicator: TA100, Metabolic Activation: RAT, LIVER, S-9, AROCLOR 1254 (10%), Method: PREINCUBATION): inactive; negative
- mutagenic call (Test System: AMES SALMONELLA TYPHIMURIUM, Strain/Indicator: TA1535, Metabolic Activation: HAMSTER, LIVER, S-9, AROCLOR 1254 (10%), Method: PREINCUBATION): inactive; negative
- mutagenic call (Test System: AMES SALMONELLA TYPHIMURIUM, Strain/Indicator: TA1535, Metabolic Activation: NONE, Method: PREINCUBATION): inactive; negative
- mutagenic call (Test System: AMES SALMONELLA TYPHIMURIUM, Strain/Indicator: TA1535, Metabolic Activation: RAT, LIVER, S-9, AROCLOR 1254 (10%), Method: PREINCUBATION): inactive; negative
- mutagenic call (Test System: AMES SALMONELLA TYPHIMURIUM, Strain/Indicator: TA1537, Metabolic Activation: HAMSTER, LIVER, S-9, AROCLOR 1254 (10%), Method: PREINCUBATION): inactive; negative
- mutagenic call (Test System: AMES SALMONELLA TYPHIMURIUM, Strain/Indicator: TA1537, Metabolic Activation: NONE, Method: PREINCUBATION): inactive; negative
- mutagenic call (Test System: AMES SALMONELLA TYPHIMURIUM, Strain/Indicator: TA1537, Metabolic Activation: RAT, LIVER, S-9, AROCLOR 1254 (10%), Method: PREINCUBATION): inactive; negative

Structure (SMILES): CC1(C)C(C=C(Cl)Cl)C1C(=O)OCc1cccc(Oc2ccccc2)c1 (stereo unspecified)
- mutagenic call (Test System: AMES SALMONELLA TYPHIMURIUM, Strain/Indicator: TA97A, Metabolic Activation: NONE, Method: STANDARD PLATE): inactive; negative
- mutagenic call (Test System: AMES SALMONELLA TYPHIMURIUM, Strain/Indicator: TA97A, Metabolic Activation: RAT, CECAL CELL FREE EXTRACT, Method: STANDARD PLATE): inactive; negative
- mutagenic call (Test System: AMES SALMONELLA TYPHIMURIUM, Strain/Indicator: TA97A, Metabolic Activation: RAT, LIVER, S-9, AROCLOR 1254, Method: STANDARD PLATE): inactive; negative
- mutagenic call (Test System: AMES SALMONELLA TYPHIMURIUM, Strain/Indicator: TA98, Metabolic Activation: NONE): active; positive
- mutagenic call (Test System: AMES SALMONELLA TYPHIMURIUM, Strain/Indicator: TA98, Metabolic Activation: NONE, Method: MICROSUSPENSION): inactive; negative
- mutagenic call (Test System: AMES SALMONELLA TYPHIMURIUM, Strain/Indicator: TA98, Metabolic Activation: NONE, Method: STANDARD PLATE): inactive; negative
- mutagenic call (Test System: AMES SALMONELLA TYPHIMURIUM, Strain/Indicator: TA98, Metabolic Activation: RAT, CECAL CELL FREE EXTRACT, Method: STANDARD PLATE): inactive; negative
- mutagenic call (Test System: AMES SALMONELLA TYPHIMURIUM, Strain/Indicator: TA98, Metabolic Activation: RAT, LIVER, S-9, AROCLOR 1254, Method: STANDARD PLATE): inactive; negative
- mutagenic call (Test System: AMES SALMONELLA TYPHIMURIUM, Strain/Indicator: TA98, Metabolic Activation: RAT, LIVER, S-9, POLYCHLORINATED BIPHENYLS): inactive; negative
- mutagenic call (Test System: AMES SALMONELLA TYPHIMURIUM, Strain/Indicator: TA98, Metabolic Activation: S-9, Method: MICROSUSPENSION): inactive; negative
- mutagenic call (Test System: AMES SALMONELLA TYPHIMURIUM, Strain/Indicator: TA100): inactive; negative
- mutagenic call (Test System: AMES SALMONELLA TYPHIMURIUM, Strain/Indicator: TA100, Metabolic Activation: NONE): inactive; negative
- mutagenic call (Test System: AMES SALMONELLA TYPHIMURIUM, Strain/Indicator: TA100, Metabolic Activation: NONE, Method: MICROSUSPENSION): inactive; negative
- mutagenic call (Test System: AMES SALMONELLA TYPHIMURIUM, Strain/Indicator: TA100, Metabolic Activation: NONE, Method: STANDARD PLATE): inactive; negative
- mutagenic call (Test System: AMES SALMONELLA TYPHIMURIUM, Strain/Indicator: TA100, Metabolic Activation: RAT, CECAL CELL FREE EXTRACT, Method: STANDARD PLATE): inactive; negative
- mutagenic call (Test System: AMES SALMONELLA TYPHIMURIUM, Strain/Indicator: TA100, Metabolic Activation: RAT, LIVER, S-9, AROCLOR 1254, Method: STANDARD PLATE): inactive; negative
- mutagenic call (Test System: AMES SALMONELLA TYPHIMURIUM, Strain/Indicator: TA100, Metabolic Activation: S-9, Method: MICROSUSPENSION): inactive; negative
- mutagenic call (Test System: AMES SALMONELLA TYPHIMURIUM, Strain/Indicator: TA1535, Metabolic Activation: NONE, Method: STANDARD PLATE): inactive; negative
- mutagenic call (Test System: AMES SALMONELLA TYPHIMURIUM, Strain/Indicator: TA1535, Metabolic Activation: RAT, LIVER, S-9, AROCLOR 1254, Method: STANDARD PLATE): inactive; negative
- mutagenic call (Test System: AMES SALMONELLA TYPHIMURIUM, Strain/Indicator: TA1537, Metabolic Activation: NONE, Method: STANDARD PLATE): inactive; negative
- mutagenic call (Test System: AMES SALMONELLA TYPHIMURIUM, Strain/Indicator: TA1537, Metabolic Activation: RAT, LIVER, S-9, AROCLOR 1254, Method: STANDARD PLATE): inactive; negative
- mutagenic call (Test System: CHINESE HAMSTER V-79, Strain/Indicator: V-79/6-THIOGUANINE, Metabolic Activation: NONE, Method: STANDARD PLATE): inactive; negative
- mutagenic call (Test System: CHINESE HAMSTER V-79, Strain/Indicator: V-79/6-THIOGUANINE, Metabolic Activation: RAT HEPATOCYTES, Method: STANDARD PLATE): inactive; negative
- mutagenic call (Test System: CHINESE HAMSTER V-79, Strain/Indicator: V-79/OUABAIN, Metabolic Activation: NONE, Method: STANDARD PLATE): inactive; negative
- mutagenic call (Test System: CHINESE HAMSTER V-79, Strain/Indicator: V-79/OUABAIN, Metabolic Activation: RAT HEPATOCYTES, Method: STANDARD PLATE): inactive; negative
- mutagenic call (Test System: E. COLI, Strain/Indicator: WP2, Metabolic Activation: NONE, Method: STANDARD PLATE): inactive; negative
- mutagenic call (Test System: E. COLI, Strain/Indicator: WP2, Metabolic Activation: RAT, LIVER, S-9, AROCLOR 1254, Method: STANDARD PLATE): inactive; negative

Source: PubChem BioAssay AID1259407 (Chemical Carcinogenesis Research Information System (CCRIS), 2018)
